According to PubChem BioAssay (NCI):
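Following 48 hours of exposure in 96-well plates, responses at five concentrations were used to interpolate endpoints linearly. GI50 is the concentration that inhibits growth by half. The concentration for full growth arrest is given as TGI.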

Tests used:
Assay in all cases: inhibition of tumour cell growth, NCI panel, 48 h
[1] = tested on: 786-0 renal
[2] = tested on: ACHN renal
[3] = tested on: CCRF-CEM leukemia
[4] = tested on: NCI-H23 lung
[5] = tested on: SF-295 CNS
[6] = tested on: SK-MEL-5 melanoma
[7] = tested on: SK-OV-3 ovarian
[8] = tested on: SW-620 colon
[9] = tested on: K-562 leukemia
[10] = tested on: MALME-3M melanoma

| Compound | TGI [1] | TGI [2] | TGI [3] | TGI [4] | TGI [5] | TGI [6] | TGI [7] | TGI [8] | GI50 [1] | GI50 [2] | GI50 [3] | GI50 [9] | TGI [9] | GI50 [10] | TGI [10] | GI50 [4] | GI50 [5] | GI50 [6] | GI50 [8] | GI50 [7] |
| --- | --- | --- | --- | --- | --- | --- | --- | --- | --- | --- | --- | --- | --- | --- | --- | --- | --- | --- | --- | --- |
| O=C1NC(=O)C(CC2CCCCCCCCCCC2=O)C(=O)N1 (stereo not drawn) | > 100 µM | > 100 µM | > 100 µM | > 100 µM | > 100 µM | > 100 µM | > 100 µM | > 100 µM |  |  |  |  |  |  |  |  |  |  |  |  |
| O=C1CSC(c2ccc(Cl)cc2Cl)N1c1ccc(F)cc1 (stereo not drawn) | 31.7 µM | 31.1 µM | 19 µM | 31.2 µM | 37.2 µM | 39.8 µM |  | 37.5 µM | 17.8 µM | 17.2 µM | 2.19 µM | 19.8 µM | 45.7 µM | 20.4 µM | 35.5 µM | 16.6 µM | 18.3 µM | 24.6 µM | 21.7 µM |  |
| CC(=O)C(=CN1CCN(C(=O)c2ccco2)C1=S)C(C)=O | 18.8 µM | 8.04 µM |  | 31.6 µM | 52.6 µM | 31.5 µM | 43.9 µM | 31.3 µM | 5.34 µM | 2.87 µM |  | 38.4 µM | > 100 µM | 20.7 µM | 47.9 µM | 16.4 µM | 21.7 µM | 16.6 µM | 14.6 µM | 20 µM |
| C/C(CC(=O)NCCc1ccccc1)=N\NC(=O)C[n+]1ccccc1 | > 100 µM | > 100 µM |  | > 100 µM | > 100 µM | > 100 µM | > 100 µM | > 100 µM |  |  |  |  | > 100 µM |  | > 100 µM |  |  |  |  |  |
| COc1cccc2c(=O)c3c(sc12)c(N1CCNCC1)nc1ccccc13 | 3.39 µM | 2.97 µM |  | 3.1 µM | 3.37 µM | 3.09 µM |  | 3.09 µM | 1.73 µM | 1.6 µM |  |  |  | 1.65 µM | 3.24 µM | 1.62 µM | 1.82 µM | 1.7 µM | 1.49 µM |  |
| COc1cc2[nH]c(C(=O)c3cc(OC)c(OC)c(OC)c3)c(N)c2cc1C#CC1CC1 | > 100 µM | > 100 µM | > 100 µM | > 100 µM | > 100 µM | 22.4 µM | > 100 µM | > 100 µM | 3.25 µM | 1.3 µM | 3.38 µM | 1.94 µM | > 100 µM |  |  | 7.12 µM | 1.66 µM | 1.33 µM | 2.9 µM | 3.42 µM |
| O=C(O)C1C(Br)(c2ccccc2)C1(Br)c1ccccc1 (stereo not drawn) | > 100 µM | 57 µM |  | > 100 µM | > 100 µM | 88.8 µM | 81 µM | > 100 µM |  |  |  |  | > 100 µM |  | > 100 µM |  |  |  |  |  |
| CC1=C(O)C(=O)C=C2C1=CC=C1[C@@]2(C)CC[C@@]2(C)[C@@H]3C[C@](C)(C(=O)O)CC[C@]3(C)CC[C@]12C | 0.0294 µM | 0.0459 µM | 0.15 µM | 0.181 µM | 0.54 µM | 0.228 µM | 1 µM |  |  |  |  |  | 0.0617 µM |  | 0.152 µM |  |  |  |  |  |
| CC(CO)(CO)NCCCCn1ccc2c1C(=O)c1c(c(O)c3ccccc3c1O)C2=O | 26.9 µM | > 100 µM |  | 36.4 µM | 26.6 µM |  | 98.7 µM | 29.2 µM | 10.9 µM | 6.27 µM |  |  |  | 1.69 µM | 7.38 µM | 15.8 µM | 11.2 µM |  | 5.47 µM | 27.4 µM |
| O=C1Nc2ccc(F)cc2/C1=C/c1ccc[nH]1 | > 25 µM | > 25 µM |  | > 25 µM | > 25 µM | > 25 µM | > 25 µM | > 25 µM | > 25 µM | 18.5 µM |  | > 25 µM | > 25 µM | > 25 µM | > 25 µM | > 25 µM | > 25 µM | > 25 µM | 24.6 µM | > 25 µM |
| COc1ccc(OC)c2c(C(=O)O)c(Cc3ccccc3)ccc12 | > 100 µM | > 100 µM |  | > 100 µM | > 100 µM | > 100 µM | > 100 µM | > 100 µM |  |  |  |  | > 100 µM |  | > 100 µM |  |  |  |  |  |
| S=C1OC2CCCC[C@H]2O1 (stereo partly drawn) | > 100 µM | > 100 µM | > 100 µM | > 100 µM | > 100 µM | > 100 µM | > 100 µM | > 100 µM |  |  |  |  | > 100 µM |  |  |  |  |  |  |  |
| c1ccc(C2Nc3ccccc3C3OCCCC23)cc1 (stereo not drawn) | > 100 µM | > 100 µM | 84.8 µM | > 100 µM | 37.4 µM | 31.5 µM |  | > 100 µM |  |  |  |  | > 100 µM |  | > 100 µM |  |  |  |  |  |
| CC(C)C[C@H](NC(=O)/C=C/Cn1ccc2ccccc2c1=O)B(O)O | > 100 µM | > 100 µM |  | > 100 µM | 15.1 µM | 6.16 µM | 92.2 µM | > 100 µM | 5.03 µM | 3.33 µM |  | 6 µM | > 100 µM | 3.82 µM | 23 µM | 5.87 µM | 2.75 µM | 2.36 µM | 3.55 µM | 10.5 µM |
| CSC(C1c2ccccc2N(c2ccc(C)cc2)c2[nH]c(=O)n(C)c(=O)c21)S(=O)(=O)c1ccc(C)cc1 (stereo not drawn) | > 100 µM |  | > 100 µM | > 100 µM | > 100 µM | > 100 µM | > 100 µM | > 100 µM |  |  |  |  | > 100 µM |  | > 100 µM |  |  |  |  |  |
| CCCCCCCCCCCC(=O)OCC1OC(OC)C(NC(=O)N(CCCl)N=O)C(O)C1O (stereo not drawn) | 10.4 µM | 35.6 µM | 13.8 µM |  | 20.8 µM | 29.9 µM |  | 24.5 µM |  |  |  |  | 31.1 µM |  | 30.6 µM |  |  |  |  |  |
| COc1cc(NC(C)CCCN)c2nccc(C)c2c1 (stereo not drawn) | 38 µM | 74.6 µM |  | > 100 µM | 35.4 µM | 82.8 µM | 58.5 µM |  |  |  |  |  |  |  | 35.6 µM |  |  |  |  |  |
| CN(CCC#N)c1ccc(/C=C(\C#N)c2ccc(Br)cc2)cc1 | > 100 µM | > 100 µM |  | > 100 µM |  |  | > 100 µM | > 100 µM | > 100 µM | > 100 µM |  | 3.5 µM | > 100 µM | > 100 µM | > 100 µM | > 100 µM |  |  | 3.87 µM | > 100 µM |
